The assay relates to trigeminal neuralgia (TGN) patients. Briefly: 7 week randomized withdrawal trial with trigeminal neuralgia (TGN) patients. The class given is in vivo, human. The source says: CNV1014802 is a novel Nav1.7 selective state-dependent sodium channel blocker that is being assessed in the treatment of trigeminal neuralgia. The trial used a randomized withdrawal design to assess efficacy in this rare condition and comprised a 21-day open-label phase followed by a randomized 28-day placebo-controlled phase for responders as described in Zakrzewska et al., (2013) Trials 14:402). Patients participated in an initial open-label treatment period of 21 days of CNV1014802 using 150 mg three times daily. Responders were then randomized to 28 days of CNV1014802 150 mg three times daily or placebo. A responder at the end of the open-label period was defined as a patient with one of the following: • 1) a 30% or more decrease in the total number of paroxysms over the last 7 days of the open-label phase as compared to the total number recorded in the 7-day baseline phase (day-7 to -1 prior to start of study medication, Run in); and/or • 2) a 30% reduction in the mean severity of pain experienced during the paroxysm over the last 7 days of the open-label phase as compared to the total number recorded in the 7-day baseline phase (day-7 to -1 prior to start of study medication, run in); and/or • 3) a Patient Global Improvement of Change rating of much improved/very much improved. Responders were randomized to CNV1014802 or placebo, in a 1:1 ratio. During the double-blind randomized phase, patients were evaluated at each clinic visit, which occurred every 7 days to determine whether they met the failure criteria in the double-blind treatment period. […]

The structures appear in SMILES notation. Structures can show the parent of a compound that is named as a salt.

For `NC(=O)[C@@H]1CC[C@H](c2ccc(OCc3ccccc3F)cc2)N1` [CNV1014802, (5R)-5-(4-{[(2-fluorophenyl)methyl]oxy}phenyl)-L-prolinamide hydrochloride salt], under “150 mg three times daily, final week of double-blind (week 7) vs 7 day run-in, LOCF, compared to placebo group, p=0.04, FIG. 1”, the “reduction in pain severity” value was “superior”. The “reduction in the number of paroxysms” value (150 mg three times daily, final week of double-blind (week 7) vs 7 day run-in, LOCF, compared to placebo group, p=0.08, FIG. 1) was “superior”. Also, under “all patients with genetic variations, responder criteria of the 21-day open-label phase”, the “response to treatment in patients with genetic variations within the CACNA1A gene and/or the CACNA1B gene” value is “responded to treatment”.

Values taken from patent publication US20170096708A1, “DIAGNOSTIC METHOD” (Convergence Pharmaceuticals Limited, priority 2014, published 2017).
